Measured values from ChEMBL document CHEMBL3396964, “SAH derived potent and selective EZH2 inhibitors” (Bioorg Med Chem Lett, 2015).
Active and inactive are the calls of the source. The rule behind the calls is not given here.

Assays:
[1] = molecular target: Histone-lysine N-methyltransferase EZH2 (Homo sapiens, UniProt O75530+Q09028+Q15022+Q15910); assay: Inhibition of N-terminally FLAG-tagged wild type EZH2 in EZH2/SUZ12/EED/RbAp48 complex (unknown origin) expressed in baculovirus infected in SF9 cells assessed as inhibition of methylation of nucleosomes at H3K27 by scintillation counting in presence of [3H]SAM
[2] = molecular target: Histone-lysine N-methyltransferase EZH2 (Homo sapiens, UniProt O75530+Q09028+Q15022+Q15910, Y641N); assay: Inhibition of N-terminally FLAG-tagged EZH2 Y641N mutant in EZH2/SUZ12/EED/RbAp48 complex (unknown origin) expressed in baculovirus infected in SF9 cells assessed as inhibition of methylation of nucleosomes at H3K27 by scintillation counting in presence of [3H]SAM
[3] = molecular target: Histone-lysine N-methyltransferase EZH2 (Homo sapiens) (UniProt Q15910); assay: Inhibition of EZH2 (unknown origin) at 100 uM by cell-based assay
[4] = molecular target: T1, Histone-lysine N-methyltransferase EHMT1 (Homo sapiens, UniProt Q9H9B1); assay: Inhibition of EHMT1 (unknown origin) by HMT assay
T1 sequence (Q9H9B1 whole entry): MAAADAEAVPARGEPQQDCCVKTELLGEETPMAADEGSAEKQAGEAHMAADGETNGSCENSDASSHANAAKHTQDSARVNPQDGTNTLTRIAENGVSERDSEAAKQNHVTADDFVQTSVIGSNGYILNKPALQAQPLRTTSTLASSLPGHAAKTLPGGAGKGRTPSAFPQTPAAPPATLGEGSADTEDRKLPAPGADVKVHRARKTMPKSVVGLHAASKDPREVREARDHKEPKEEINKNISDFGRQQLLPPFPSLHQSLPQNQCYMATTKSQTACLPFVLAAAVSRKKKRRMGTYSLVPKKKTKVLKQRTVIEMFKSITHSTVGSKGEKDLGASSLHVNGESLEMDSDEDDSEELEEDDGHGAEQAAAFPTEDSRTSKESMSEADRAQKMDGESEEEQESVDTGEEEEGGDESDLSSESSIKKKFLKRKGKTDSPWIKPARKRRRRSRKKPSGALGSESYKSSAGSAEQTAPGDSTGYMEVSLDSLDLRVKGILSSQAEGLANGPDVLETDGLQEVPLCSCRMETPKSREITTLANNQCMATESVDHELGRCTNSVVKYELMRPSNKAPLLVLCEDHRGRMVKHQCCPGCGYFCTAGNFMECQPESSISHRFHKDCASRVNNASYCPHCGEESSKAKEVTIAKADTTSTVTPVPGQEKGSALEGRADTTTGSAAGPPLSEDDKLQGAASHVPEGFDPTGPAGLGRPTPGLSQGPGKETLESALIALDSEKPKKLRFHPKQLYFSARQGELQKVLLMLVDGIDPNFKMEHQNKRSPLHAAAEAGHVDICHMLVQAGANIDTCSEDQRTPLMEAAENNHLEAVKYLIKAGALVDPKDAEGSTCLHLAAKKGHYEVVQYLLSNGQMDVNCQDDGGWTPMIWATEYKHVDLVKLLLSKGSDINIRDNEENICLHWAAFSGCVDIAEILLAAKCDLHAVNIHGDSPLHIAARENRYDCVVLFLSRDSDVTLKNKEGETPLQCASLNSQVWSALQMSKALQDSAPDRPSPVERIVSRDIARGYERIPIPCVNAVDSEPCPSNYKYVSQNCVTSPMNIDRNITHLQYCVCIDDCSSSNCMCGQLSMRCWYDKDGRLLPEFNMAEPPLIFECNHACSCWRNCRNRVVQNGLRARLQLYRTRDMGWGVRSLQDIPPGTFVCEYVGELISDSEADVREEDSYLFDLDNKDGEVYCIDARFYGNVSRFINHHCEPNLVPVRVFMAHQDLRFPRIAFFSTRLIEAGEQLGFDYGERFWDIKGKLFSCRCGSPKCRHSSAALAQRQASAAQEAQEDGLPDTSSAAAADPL

[5] = molecular target: Histone-lysine N-methyltransferase 2A (Homo sapiens, UniProt Q03164); assay: Inhibition of MLL (unknown origin) by HMT assay
[6] = molecular target: T2, Histone-lysine N-methyltransferase SETD7 (Homo sapiens, UniProt Q8WTS6); assay: Inhibition of SETD7 (unknown origin) by HMT assay
T2 sequence (Q8WTS6 whole entry): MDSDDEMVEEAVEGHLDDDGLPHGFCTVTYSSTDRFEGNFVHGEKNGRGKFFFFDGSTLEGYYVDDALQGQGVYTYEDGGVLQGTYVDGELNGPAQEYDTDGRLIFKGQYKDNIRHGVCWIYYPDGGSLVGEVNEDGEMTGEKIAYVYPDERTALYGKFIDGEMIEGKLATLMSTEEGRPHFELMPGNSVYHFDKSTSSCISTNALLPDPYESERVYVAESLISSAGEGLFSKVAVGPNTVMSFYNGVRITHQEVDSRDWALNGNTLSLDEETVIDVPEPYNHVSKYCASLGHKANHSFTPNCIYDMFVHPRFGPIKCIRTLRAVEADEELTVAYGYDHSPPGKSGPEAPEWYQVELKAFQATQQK

[7] = molecular target: Histone-lysine N-methyltransferase SETDB1 (Homo sapiens, UniProt Q15047); assay: Inhibition of SETDB1 (unknown origin) by HMT assay
[8] = molecular target: Histone-lysine N-methyltransferase SUV39H2 (Homo sapiens, UniProt Q9H5I1); assay: Inhibition of SUV39H2 (unknown origin) by HMT assay
[9] = molecular target: Histone-lysine N-methyltransferase KMT5C (Homo sapiens, UniProt Q86Y97); assay: Inhibition of SUV420H2 (unknown origin) by HMT assay
[10] = molecular target: N-lysine methyltransferase SMYD2 (Homo sapiens, UniProt Q9NRG4); assay: Inhibition of SMYD2 (unknown origin) by HMT assay
N-lysine methyltransferase SMYD2, sequence (Q9NRG4 whole entry): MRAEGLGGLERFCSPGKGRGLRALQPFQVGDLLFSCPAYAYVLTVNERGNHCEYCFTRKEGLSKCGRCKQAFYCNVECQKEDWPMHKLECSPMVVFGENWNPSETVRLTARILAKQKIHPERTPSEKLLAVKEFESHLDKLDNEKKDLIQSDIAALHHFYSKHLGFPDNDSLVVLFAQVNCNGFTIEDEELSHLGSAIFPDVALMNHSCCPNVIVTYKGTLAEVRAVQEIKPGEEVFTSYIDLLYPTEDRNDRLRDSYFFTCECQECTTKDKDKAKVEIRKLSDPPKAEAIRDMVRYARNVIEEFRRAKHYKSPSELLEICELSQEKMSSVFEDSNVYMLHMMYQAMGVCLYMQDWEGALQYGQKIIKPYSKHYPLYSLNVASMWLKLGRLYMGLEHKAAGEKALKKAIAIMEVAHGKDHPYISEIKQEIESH

Histone-lysine N-methyltransferase EZH2 (Homo sapiens, UniProt O75530+Q09028+Q15022+Q15910, Y641N), sequence (Q15910 whole entry Y641N, one chain of several): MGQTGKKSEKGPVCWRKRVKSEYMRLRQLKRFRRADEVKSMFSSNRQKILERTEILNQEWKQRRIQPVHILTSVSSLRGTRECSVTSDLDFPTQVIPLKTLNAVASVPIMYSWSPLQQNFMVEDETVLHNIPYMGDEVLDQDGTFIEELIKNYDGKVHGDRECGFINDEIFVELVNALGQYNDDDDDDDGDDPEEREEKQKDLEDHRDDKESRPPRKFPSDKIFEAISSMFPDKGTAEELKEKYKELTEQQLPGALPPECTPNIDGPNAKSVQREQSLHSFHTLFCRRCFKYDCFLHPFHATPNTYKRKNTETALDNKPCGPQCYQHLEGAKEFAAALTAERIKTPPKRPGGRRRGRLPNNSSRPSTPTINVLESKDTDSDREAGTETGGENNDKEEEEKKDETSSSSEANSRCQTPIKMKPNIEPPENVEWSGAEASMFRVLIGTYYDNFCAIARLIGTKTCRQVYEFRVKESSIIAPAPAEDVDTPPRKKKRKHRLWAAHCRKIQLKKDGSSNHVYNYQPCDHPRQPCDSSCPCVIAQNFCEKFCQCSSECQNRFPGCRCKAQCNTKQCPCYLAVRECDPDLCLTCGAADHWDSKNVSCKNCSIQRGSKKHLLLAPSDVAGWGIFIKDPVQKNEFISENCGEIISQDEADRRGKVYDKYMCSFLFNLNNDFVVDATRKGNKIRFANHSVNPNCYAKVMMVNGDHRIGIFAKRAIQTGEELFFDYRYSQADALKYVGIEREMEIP
Histone-lysine N-methyltransferase EZH2 (Homo sapiens, UniProt O75530+Q09028+Q15022+Q15910), sequence (Q15910 whole entry, one chain of several): as the sequence (Q15910 whole entry Y641N, one chain of several) above, with N641Y counted along it
Histone-lysine N-methyltransferase KMT5C, sequence (Q86Y97 whole entry): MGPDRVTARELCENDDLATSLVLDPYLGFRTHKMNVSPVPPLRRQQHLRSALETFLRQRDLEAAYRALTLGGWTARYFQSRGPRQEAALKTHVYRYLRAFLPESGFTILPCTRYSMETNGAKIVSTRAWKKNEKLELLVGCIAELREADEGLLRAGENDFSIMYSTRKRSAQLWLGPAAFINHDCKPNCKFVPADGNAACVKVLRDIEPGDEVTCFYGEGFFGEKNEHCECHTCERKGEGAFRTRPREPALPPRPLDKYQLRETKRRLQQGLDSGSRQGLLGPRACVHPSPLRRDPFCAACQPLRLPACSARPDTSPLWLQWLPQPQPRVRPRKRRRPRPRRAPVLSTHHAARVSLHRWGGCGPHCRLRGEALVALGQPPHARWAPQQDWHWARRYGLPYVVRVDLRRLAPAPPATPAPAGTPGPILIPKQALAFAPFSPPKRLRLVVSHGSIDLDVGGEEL
Histone-lysine N-methyltransferase EZH2 (Homo sapiens), sequence (Q15910 whole entry, looked up): as the sequence (Q15910 whole entry Y641N, one chain of several) above, with N641Y counted along it
Histone-lysine N-methyltransferase SUV39H2, sequence (Q9H5I1 whole entry): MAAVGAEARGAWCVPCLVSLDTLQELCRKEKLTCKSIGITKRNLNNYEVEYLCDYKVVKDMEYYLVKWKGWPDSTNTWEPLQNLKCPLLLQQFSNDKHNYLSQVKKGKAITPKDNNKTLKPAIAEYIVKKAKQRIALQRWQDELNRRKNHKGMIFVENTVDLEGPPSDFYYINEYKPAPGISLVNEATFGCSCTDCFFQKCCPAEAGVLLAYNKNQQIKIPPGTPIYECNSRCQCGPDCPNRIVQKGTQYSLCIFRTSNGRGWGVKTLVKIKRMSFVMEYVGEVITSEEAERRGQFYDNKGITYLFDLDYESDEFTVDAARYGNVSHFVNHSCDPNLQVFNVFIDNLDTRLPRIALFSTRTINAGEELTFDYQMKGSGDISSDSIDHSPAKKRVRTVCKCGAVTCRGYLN

Row | SMILES | IC50 [1] | also measured
1 | CC(C)(C)c1cc(CNC(=O)[C@@H](N)CCSC[C@H]2O[C@@H](n3cnc4c(N)ncnc43)[C@H](O)[C@@H]2O)n[nH]1 | 14 µM | IC50 [2]: 3600 nM
2 | Nc1ncnc2c1ncn2[C@@H]1O[C@H](CSCC[C@H](N)C(=O)NCc2cc3n(n2)CCN(Cc2ccccc2)C3)[C@@H](O)[C@H]1O | 8 µM | IC50 [2]: 2800 nM
3 | Cc1ccccc1-n1cc(CNC(=O)[C@@H](N)CCSC[C@H]2O[C@@H](n3cnc4c(N)ncnc43)[C@H](O)[C@@H]2O)cn1 | 28 µM | –
4 | Nc1ncnc2c1ncn2[C@@H]1O[C@H](CSCC[C@H](N)C(=O)NCc2cc(C3CCC3)[nH]n2)[C@@H](O)[C@H]1O | 3 µM | IC50 [2]: 1000 nM
5 | Nc1ncnc2c1ncn2[C@@H]1O[C@H](CSCC[C@H](N)C(=O)O)[C@@H](O)[C@H]1O [S-ADENOSYLHOMOCYSTEINE] | – | inhibition [3]: inactive; IC50 [4]: 230 nM; IC50 [5]: 2300 nM; IC50 [6]: 30 µM; IC50 [7]: 2200 nM; IC50 [8]: 32 µM; IC50 [9]: 10 µM; IC50 [10]: 180 nM
6 | Nc1ncnc2c1ncn2[C@@H]1O[C@H](CSCC[C@H](N)C(=O)NCc2cnn(-c3ccc(F)cc3)c2)[C@@H](O)[C@H]1O | 1.4 µM | IC50 [2]: 600 nM
7 | Nc1ncnc2c1ncn2[C@@H]1O[C@H](CSCC[C@H](N)C(=O)NCc2cnn(Cc3ccccc3)c2)[C@@H](O)[C@H]1O | 24 µM | –

The next lines start with results.

Row | IC50 [1] | SMILES | also measured
8 | 19 µM | CCCCNC(=O)[C@@H](N)CCSC[C@H]1O[C@@H](n2cnc3c(N)ncnc32)[C@H](O)[C@@H]1O | –
9 | 60 µM | Nc1ncnc2c1ncn2[C@@H]1O[C@H](CSCC[C@H](N)C(=O)NCC2CC2)[C@@H](O)[C@H]1O | –
10 | 120 µM | Nc1ncnc2c1ncn2[C@@H]1O[C@H](CSCC[C@H](N)C(=O)NCc2ccccc2)[C@@H](O)[C@H]1O | –
11 | 40 µM | Cc1cc(CNC(=O)[C@@H](N)CCSC[C@H]2O[C@@H](n3cnc4c(N)ncnc43)[C@H](O)[C@@H]2O)n(C)n1 | –
12 | 40 µM | COCc1cc(CNC(=O)[C@@H](N)CCSC[C@H]2O[C@@H](n3cnc4c(N)ncnc43)[C@H](O)[C@@H]2O)n[nH]1 | –
13 | 24 µM | CCCCNC(=O)C(N)CCSC[C@H]1O[C@@H](n2cnc3c(N)ncnc32)[C@H](O)[C@@H]1O (mixture of isomers) | –
14 | 50 µM | CCn1cc(CNC(=O)[C@@H](N)CCSC[C@H]2O[C@@H](n3cnc4c(N)ncnc43)[C@H](O)[C@@H]2O)cn1 | –
15 | 50 µM | CN1CCn2nc(CNC(=O)[C@@H](N)CCSC[C@H]3O[C@@H](n4cnc5c(N)ncnc54)[C@H](O)[C@@H]3O)cc2C1 | –
16 | 40 µM | Cn1nc(CNC(=O)[C@@H](N)CCSC[C@H]2O[C@@H](n3cnc4c(N)ncnc43)[C@H](O)[C@@H]2O)cc1C1CCC1 | –
